Literature values as cited in patent US6903136B2, “Food supplements containing 4-hydroxyisoleucine and creatine” (Experimental and Applied Sciences, Inc., priority 2002, dated 2005).

Columns and labels:
insulinotropic activity [1] = test system: insulinotropic activity
insulinotropic activity [2] = conditions: normal and diabetic rats; intravenous and oral delivery
secretion of insulin = conditions: in vitro

Compound | activity as an insulinotropic agent (insulinotropic activity [1]) | activity as an insulinotropic agent relative to leucine, isoleucine, or homoserine (insulinotropic activity [1]; fold more active than leucine, isoleucine, or homoserine) | insulinotropic activity in vivo (insulinotropic activity [2]) | effect on secretion of insulin (secretion of insulin; normal blood glucose levels) | insulinotropic activity (secretion of insulin; supranormal glucose levels)
CC(O)C(C)C(N)C(=O)O (single isomer, unassigned) [(2R, 3R, 4S) isomer] | inactive | – | – | – | –
C[C@@H]([C@H](C)O)[C@H](N)C(=O)O (single isomer, unassigned) [(2S, 3R, 4S) stereoisomer of 4OH-Ile] | active | at least 15 × | – | – | –
CC(O)[C@H](C)[C@H](N)C(=O)O (stereo partly shown) [Example 4OH-Ile, 4-Hydroxyisoleucine] | – | – | verified the insulinotropic activity in vivo | does not affect the secretion of insulin | strong insulinotropic activity
CC1OC(=O)C(N)C1C (stereo not shown) [lactone form of 4OH-Ile] | not active | – | – | – | –
